Like-named read-outs stand apart in the source and are kept apart here. Bounds are passed on as bounds.

Data set [1] has as its target recombinant human GALK1 (Homo sapiens, UniProt P51570). In words: hGALK1 biochemical activity assay (Kinase-Glo Plus, ATP depletion). A digest of the protocol:
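Recombinant human or mouse GALK1 (5 nM, with 100 μM galactose, in the added enzyme solution) was run with ATP (35 μM in the substrate solution) in HEPES pH 8.0 buffer. Compounds were tested at 11 1/3-step concentrations from 57.4 μM to 0.97 nM. After 1 h at room temperature, remaining ATP was read by Kinase-Glo Plus luminescence.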
On the technique in general: Kinase-Glo reads ATP consumption through a luciferase reaction.

The target of data set [2] is recombinant mouse GALK1 (Mus musculus, UniProt Q9R0N0). The experiment in a line: mGALK1 biochemical activity assay (Kinase-Glo Plus, ATP depletion). A digest of the protocol:
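Recombinant GALK1 (5 nM) with 100 μM galactose; GALK1 turnover read as ATP depletion by Kinase-Glo Plus luminescence. Reaction ran 1 h at room temperature before detection reagent was added.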

Data set [3] is described as follows: PAMPA permeability. (In PAMPA a lipid-coated filter parts donor from acceptor wells.)
Data set [4] is described as follows: aqueous kinetic solubility.
The nature of data set [5]: rat microsomal stability (RLM).
[6] abbreviates: recombinant human GALK1, Kinase-Glo Plus ATP depletion, read-out: hGALK.
Setting [7] is: recombinant mouse GALK1, Kinase-Glo Plus ATP depletion, read-out: mGALK.
Setting [8] is: Tables 2-15, 35 μM ATP, 100 μM galactose, 1 h, bracketed figure after some values (e.g. −1.2) is undefined and not reported, read-out: hGALK IC50.
Setting [9] is: Tables 2-15, 35 μM ATP, 100 μM galactose, 1 h, bracketed figure after some values is undefined and not reported, read-out: mGALK IC50.
Setting [10] is: recombinant human GALK1, Kinase-Glo Plus ATP depletion, bracketed figure in the cell, e.g. (−1.2), is not defined in the text shown, read-out: hGALK.
Where [11] appears, read: recombinant mouse GALK1, Kinase-Glo Plus ATP depletion, bracketed figure in the cell, e.g. (−1.2), is not defined in the text shown, read-out: mGALK.
The mark [12] stands for this setting: microsomal stability half-life, minutes.

Sequence of recombinant human GALK1 (P51570 whole entry): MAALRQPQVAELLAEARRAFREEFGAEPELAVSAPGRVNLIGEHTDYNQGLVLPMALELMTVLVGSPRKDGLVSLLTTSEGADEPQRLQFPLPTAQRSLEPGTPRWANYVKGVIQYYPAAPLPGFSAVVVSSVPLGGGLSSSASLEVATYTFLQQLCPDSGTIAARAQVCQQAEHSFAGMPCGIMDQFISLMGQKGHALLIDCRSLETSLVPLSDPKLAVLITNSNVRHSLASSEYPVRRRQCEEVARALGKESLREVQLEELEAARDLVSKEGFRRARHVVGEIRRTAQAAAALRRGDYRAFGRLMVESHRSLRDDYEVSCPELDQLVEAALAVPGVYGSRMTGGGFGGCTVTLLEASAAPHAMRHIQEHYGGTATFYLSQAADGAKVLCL
Sequence of recombinant mouse GALK1 (Q9R0N0 whole entry): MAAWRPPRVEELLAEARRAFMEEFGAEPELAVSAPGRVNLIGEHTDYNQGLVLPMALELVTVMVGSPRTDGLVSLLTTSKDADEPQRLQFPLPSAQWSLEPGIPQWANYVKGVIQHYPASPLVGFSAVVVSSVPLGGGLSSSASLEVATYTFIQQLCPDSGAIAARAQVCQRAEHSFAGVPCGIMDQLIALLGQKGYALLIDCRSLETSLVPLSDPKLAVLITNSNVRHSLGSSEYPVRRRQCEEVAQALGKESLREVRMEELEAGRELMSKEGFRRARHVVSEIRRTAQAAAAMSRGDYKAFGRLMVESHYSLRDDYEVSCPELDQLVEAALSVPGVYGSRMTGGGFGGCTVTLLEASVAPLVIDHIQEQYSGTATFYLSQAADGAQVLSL

For `CC1=C(C(=O)NCc2cnn(C)c2)C(c2ccc(Cl)cc2Cl)N=C(Nc2nc3ccc(F)c(N)c3o2)N1` (stereo not shown) [Compound 127, 2-((7-amino-6-fluorobenzo[d]oxazol-2-yl)amino)-4-(2,4-dichlorophenyl)-6-methyl-N-((1-methyl-1H-pyrazol-4-yl)methyl)-1,4-dihydropyrimidine-5-carboxamide], the IC50 in data set [1] (setting [6]) was 0.22 µM; in data set [2] (setting [7]) it was 1.93 µM. In addition, the “Perm. (1 × 10^−6 cm/sec)” value in data set [3] (PAMPA) is given as 166.7 1 × 10^−6 cm/sec. In data set [4] (aqueous kinetic solubility), the “Sol.” value was determined as 5.9 µg/mL. Also, in data set [5] (microsomal stability half-life), the “Metab. Stabil. (m)” value is reported as >30 m.
`CC1=C(C(=O)Nc2nnc(-c3cccnc3)s2)C(c2ccccc2Cl)N=C(Nc2nc3ccc(F)cc3o2)N1` (stereo not shown) [Compound 100, 4-(2-chlorophenyl)-2-((6-fluorobenzo[d]oxazol-2-yl)amino)-6-methyl-N-(5-(pyridin-3-yl)-1,3,4-thiadiazol-2-yl)-1,4-dihydropyrimidine-5-carboxamide]: the IC50 stood at 17.2 µM in data set [1] (setting [6]) and 38.5 µM in data set [2] (setting [7]). In data set [3], the “Perm. (1 × 10^−6 cm/sec)” value is recorded as <9.9 1 × 10^−6 cm/sec. Besides, in data set [4], the “Sol.” value is <1 µg/mL. The “Metab. Stabil. (m)” value in data set [5] (microsomal half-life) is recorded as >30 m.
By Papp is commonly meant the rate of passage across a membrane or cell layer, normalised by area and donor concentration. Consider `CC1=C(C(=O)Nc2ccc(N3CCNCC3)cc2)C(c2ccccc2Cl)N=C(Nc2nc3ccccc3o2)N1` (stereo not shown) [Compound 190, 2-(benzo[d]oxazol-2-ylamino)-4-(2-chlorophenyl)-6-methyl-N-(4-(piperazin-1-yl)phenyl)-1,4-dihydropyrimidine-5-carboxamide], for which the IC50 in data set [1] (setting [8]) is 68.5 µM; in data set [1] (setting [6]), 68.5 µM; in data set [2] (setting [9]) it was 48.5 µM; in data set [2] (setting [7]), 48.5 µM. Further, the apparent permeability (Papp) in data set [3] (PAMPA, Perm. (1 × 10^−6 cm/sec)) is 894 ×10⁻⁶ cm/s. Besides, the “Sol.” value in data set [4] (aqueous kinetic solubility) amounted to 2.416 µg/mL. The “Metab. Stabil. (m)” value in data set [5] (microsomal stability half-life) is 8.634 m.
Regarding `CC1=C(C(=O)Nc2nncs2)C(c2ccccc2Br)N=C(Nc2nc3ccccc3o2)N1` (stereo not shown) [Compound 251, 2-(benzo[d]oxazol-2-ylamino)-4-(2-bromophenyl)-6-methyl-N-(1,3,4-thiadiazol-2-yl)-1,4-dihydropyrimidine-5-carboxamide], the IC50 in data set [1] (setting [10]) is 4.32 µM; in data set [2] (setting [11]), 9.68 µM. Besides, the “Perm. (1 × 10^−6 cm/sec)” value in data set [3] (PAMPA) is 446.9 1 × 10^−6 cm/sec. Moreover, in data set [4] (aqueous kinetic solubility), the “Sol.” value was <1 µg/mL. Further, the “Metab. Stabil. (m)” value in data set [5] (setting [12]) is given as >30 m.
`CC1=C(C(=O)Nc2nc(CO)cs2)C(c2ccccc2Cl)N=C(Nc2nc3ccccc3o2)N1` (stereo not shown) [Compound 198, 2-(benzo[d]oxazol-2-ylamino)-4-(2-chlorophenyl)-N-(4-(hydroxymethyl)thiazol-2-yl)-6-methyl-1,4-dihydropyrimidine-5-carboxamide]: the IC50 in data set [1] (setting [8]) stood at 17.2 µM; in data set [1] (setting [6]) it was 17.2 µM; in data set [2] (setting [9]), 19.3 µM; in data set [2] (setting [7]) it was 19.3 µM. Further, the “Perm. (1 × 10^−6 cm/sec)” value in data set [3] (PAMPA) is 59.9 1 × 10^−6 cm/sec. Further, the “Sol.” value in data set [4] (aqueous kinetic solubility) is <1 µg/mL. Moreover, in data set [5] (microsomal stability half-life), the “Metab. Stabil. (m)” value is listed as >30 m.
Take `CC1=C(C(=O)Nc2cc(C(=O)O)ccn2)C(c2cccc(N)c2Cl)N=C(Nc2nc3ccc(F)cc3o2)N1` (stereo not shown) [Compound 64, 2-(4-(3-amino-2-chlorophenyl)-2-((6-fluorobenzo[d]oxazol-2-yl)amino)-6-methyl-1,4-dihydropyrimidine-5-carboxamido)isonicotinic acid]: the IC50 in data set [1] (setting [8]) was found to be 3.06 µM; in data set [1] (setting [6]), 3.06 µM; in data set [2] (setting [9]), 17.2 µM; in data set [2] (setting [7]), 17.2 µM. In data set [3], the “Perm. (1 × 10^−6 cm/sec)” value is <1 1 × 10^−6 cm/sec. Further, in data set [4], the “Sol.” value was >79 µg/mL. In addition, in data set [5] (microsomal half-life), the “Metab. Stabil. (m)” value is given as >30 m.
As to `CC1=C(C(=O)Nc2cccc(CN)c2)C(c2ccccc2Cl)N=C(Nc2nc3ccccc3o2)N1` (stereo not shown) [Compound 171, N-(3-(aminomethyl)phenyl)-2-(benzo[d]oxazol-2-ylamino)-4-(2-chlorophenyl)-6-methyl-1,4-dihydropyrimidine-5-carboxamide], the IC50 in data set [1] (setting [8]) was found to be 10.9 µM; in data set [1] (setting [6]), 10.9 µM; in data set [2] (setting [9]), 6.85 µM; in data set [2] (setting [7]) it was 6.85 µM. Besides, in data set [3] (PAMPA), the “Perm. (1 × 10^−6 cm/sec)” value is given as 32.7 1 × 10^−6 cm/sec. The “Sol.” value in data set [4] (aqueous kinetic solubility) worked out at 37.5 µg/mL. Moreover, the “Metab. Stabil. (m)” value in data set [5] (microsomal stability half-life) is on record as >30 m.
`CC1=C(C(=O)Nc2nncs2)C(c2ncccc2Br)N=C(Nc2nc3ccccc3o2)N1` (stereo not shown) [Compound 257, 2-(benzo[d]oxazol-2-ylamino)-4-(3-bromopyridin-2-yl)-6-methyl-N-(1,3,4-thiadiazol-2-yl)-1,4-dihydropyrimidine-5-carboxamide]: the IC50 in data set [1] (setting [10]) is 4.85 µM; in data set [2] (setting [11]) it was 6.85 µM. Further, in data set [3] (PAMPA), the “Perm. (1 × 10^−6 cm/sec)” value is on record as 709.3 1 × 10^−6 cm/sec. Also, in data set [4] (aqueous kinetic solubility), the “Sol.” value came to 3.0 µg/mL. Further, the “Metab. Stabil. (m)” value in data set [5] (setting [12]) is on record as >30 m.
Consider `COc1ccc2nc(NC3=NC(c4ccccc4Cl)C(C(=O)Nc4cc(C(=O)O)ccn4)=C(C)N3)oc2c1` (stereo not shown) [Compound 7, 2-(4-(2-chlorophenyl)-6-methyl-2-((6-methoxybenzo[d]oxazol-2-yl)amino)-1,4-dihydropyrimidine-5-carboxamido)isonicotinic acid], for which the IC50 in data set [1] (setting [6]), in data set [2] (setting [9]) and in data set [2] (setting [7]) was 21.7 µM throughout. Besides, the “Perm. (1 × 10^−6 cm/sec)” value in data set [3] was <1 1 × 10^−6 cm/sec. For the same compound, the “Sol.” value in data set [4] was >79 µg/mL. The “Metab. Stabil. (m)” value in data set [5] (microsomal half-life) is recorded as >30 m.
With `CC1=C(C(=O)Nc2nnc(-c3cccnc3)s2)C(c2ccccc2Cl)N=C(Nc2nc3cc(C)ccc3o2)N1` (stereo not shown) [Compound 96, 4-(2-chlorophenyl)-2-((5-methylbenzo[d]oxazol-2-yl)amino)-6-methyl-N-(5-(pyridin-3-yl)-1,3,4-thiadiazol-2-yl)-1,4-dihydropyrimidine-5-carboxamide], the IC50 in data set [1] (setting [6]) was 4.85 µM; in data set [2] (setting [7]), 10.9 µM. For the same compound, the “Perm. (1 × 10^−6 cm/sec)” value in data set [3] was <1.5 1 × 10^−6 cm/sec. For the same compound, in data set [4], the “Sol.” value is <1 µg/mL. Moreover, the “Metab. Stabil. (m)” value in data set [5] (microsomal half-life) is >30 m.
For the compound `CC1=C(C(=O)Nc2ccc(N(C)C)cc2)C(c2ccccc2Cl)N=C(Nc2nc3ccccc3o2)N1` (stereo not shown) [Compound 152, 2-(benzo[d]oxazol-2-ylamino)-4-(2-chlorophenyl)-N-(4-(dimethylamino)phenyl)-6-methyl-1,4-dihydropyrimidine-5-carboxamide], the IC50 was found to be 7.69 µM in data set [1] (setting [8]), 7.69 µM in data set [1] (setting [6]), 13.7 µM in data set [2] (setting [9]) and 13.7 µM in data set [2] (setting [7]). Also, in data set [3] (PAMPA), the “Perm. (1 × 10^−6 cm/sec)” value is recorded as 15.0 1 × 10^−6 cm/sec. For the same compound, the “Sol.” value in data set [4] (aqueous kinetic solubility) is <1 µg/mL. Moreover, the “Metab. Stabil. (m)” value in data set [5] (microsomal stability half-life) worked out at 11.45 m.
Consider `CCn1cc(CNC(=O)C2=C(C)NC(Nc3nc4ccc(F)c(N)c4o3)=NC2c2ccc(Cl)cc2Cl)cn1` (stereo not shown) [Compound 130, 2-((7-amino-6-fluorobenzo[d]oxazol-2-yl)amino)-4-(2,4-dichlorophenyl)-N-((1-ethyl-1H-pyrazol-4-yl)methyl)-6-methyl-1,4-dihydropyrimidine-5-carboxamide], for which the results for the IC50 in data set [1] (setting [6]) and in data set [2] (setting [7]) were 0.27 µM and 1.93 µM, respectively. Moreover, in data set [3] (PAMPA), the “Perm. (1 × 10^−6 cm/sec)” value was 380.3 1 × 10^−6 cm/sec. Moreover, in data set [4] (aqueous kinetic solubility), the “Sol.” value was <1 µg/mL. Moreover, the “Metab. Stabil. (m)” value in data set [5] (microsomal stability half-life) was determined as 6.787 m.
In the case of `CC1=C(C(=O)Nc2cc(N(C)C)ccn2)C(c2ccc(C)cc2Cl)N=C(Nc2nc3ccc(F)cc3o2)N1` (stereo not shown) [Compound 90, 4-(2-chloro-4-methylphenyl)-N-(4-(dimethylamino)pyridin-2-yl)-2-((6-fluorobenzo[d]oxazol-2-yl)amino)-6-methyl-1,4-dihydropyrimidine-5-carboxamide], the IC50 in data set [1] (setting [8]) is 4.32 µM; in data set [1] (setting [6]) it was 4.32 µM; in data set [2] (setting [9]), 6.85 µM; in data set [2] (setting [7]), 6.85 µM. Also, in data set [3], the “Perm. (1 × 10^−6 cm/sec)” value is recorded as 264.3 1 × 10^−6 cm/sec. Further, the “Sol.” value in data set [4] was found to be 6.2 µg/mL. Moreover, in data set [5] (microsomal half-life), the “Metab. Stabil. (m)” value turned out to be 17.58 m.
As for `CC1=C(C(=O)Nc2cc(C(=O)O)ccn2)C(c2ccc(-c3ccc(C)nc3)cc2Cl)N=C(Nc2nc3ccc(F)cc3o2)N1` (stereo not shown) [Compound 69, 2-(4-(2-chloro-4-(6-methylpyridin-3-yl)phenyl)-2-((6-fluorobenzo[d]oxazol-2-yl)amino)-6-methyl-1,4-dihydropyrimidine-5-carboxamido)isonicotinic acid], the values for the IC50 in data set [1] (setting [6]), in data set [2] (setting [9]) and in data set [2] (setting [7]) were 0.34 µM, 1.22 µM and 1.22 µM, respectively. In addition, the “Perm. (1 × 10^−6 cm/sec)” value in data set [3] was <1 1 × 10^−6 cm/sec. In addition, the “Sol.” value in data set [4] was >90 µg/mL. Besides, in data set [5] (microsomal half-life), the “Metab. Stabil. (m)” value is >30 m.
For the compound `CC1=C(C(=O)NCc2cn(C)cn2)[C@H](c2ccccc2Cl)N=C(Nc2nc3ccccc3o2)N1` [Compound 235, (R)-2-(benzo[d]oxazol-2-ylamino)-4-(2-chlorophenyl)-6-methyl-N-((1-methyl-1H-imidazol-4-yl)methyl)-1,4-dihydropyrimidine-5-carboxamide], the IC50 in data set [1] (setting [8]) is 3.06 µM; in data set [1] (setting [6]), 3.06 µM; in data set [2] (setting [9]) it was 4.32 µM; in data set [2] (setting [7]), 4.32 µM. Moreover, the “Perm. (1 × 10^−6 cm/sec)” value in data set [3] (PAMPA) is listed as 866.5 1 × 10^−6 cm/sec. In addition, the “Sol.” value in data set [4] (aqueous kinetic solubility) was 46.1 µg/mL. Moreover, in data set [5] (microsomal stability half-life), the “Metab. Stabil. (m)” value is 5.621 m.

The record behind these values is patent publication US20230158025A1 (UNIVERSITY OF UTAH RESEARCH FOUNDATION, priority 2020, published 2023).
